# Values quoted from earlier work in patent US5711967A (Spirig AG, Pharmazeutische Praeparate, priority 1991, dated 1998).
# What was measured:
# [1] = above pKa value of approx. 4-5
# mucosa = conditions: release in the stomach
compound,measurement,setting,value
O=C(O)Cc1ccccc1Nc1c(Cl)cccc1Cl [diclofenac],solubility in aqueous media,[1],increases considerably above this value
same,distribution into the synovial fluid,from the blood plasma,"concentrate in the synovial fluid, with a delay"
same,elimination half-life,non-delayed-action diclofenac,1 to 2 h
same,blood concentration half-life,oral diclofenac preparations,one to two
same,action on mucosa,mucosa,mucosa-irritating and/or mucosa-damaging
